According to patent US12583845B2, “Compositions and methods for treating diseases, disorders and conditions involving trinucleotide repeats” (The Research Foundation for the State University of New York, priority 2021, dated 2026):
Entries after “also recorded” stand apart in the source; their conditions may differ.

Tests used:
Dmpk^480/480 mice = test: RT-PCR splicing rescue in Dmpk480/480 DM1 mouse model (choroid plexus/CNS); type: in vivo; conditions: for RT-PCR splicing rescue of Lnf2 exon22: choroid plexus of Dmpk^480/480 mice (N=2), 10 mg/kg, FIG. 8B
Description: (§1) New MPCs, including HM33, are being systematically designed to study bioavailability. […] Systematic modification of current MPCs (See e.g., FIGS. 5A and 5B) is used to assess the contribution of each change to bioavailability with the goal of improving BBB and other organ penetration.
(§2) Short-term Studies: To select excellent candidates for long-term studies, cohorts (N=6) of one-month old age- and gender-matched animals from both muscle (homozygous HSALR/LR or heterozygous HSAXLR) and brain (Dmpk480/480) mouse models are treated. Both transgenic (N=6) and matching wild-type (N=6) mice are treated every two days at 3 different concentrations of lead MPCs (2, 5 and 10 mg/kg) or PBS via IP injection for a period of 1 week. The 48-hour injection schedule and starting concentrations are based upon previous treatment regimens and preliminary pharmacokinetic analysis. However, the schedule or treatments is subject to change depending upon the candidate compound's history and performance in e.g., Steps 1 and 2 of FIG. 1. After 1 week of treatment, mice are tested for health (body weight, body condition score) then sacrificed, and muscle tissue (tibialis anterior, vastus lateralis, liver, kidney & brain) harvested and tested for in vivo changes in molecular (foci, splicing and MBNL1 colocalization) and histopathological features (central nuclei, HSA-based models only). To assess molecular features, frozen muscle samples are tested for: mis-splicing changes (RT-PCR and RNAseq); transgene and endogenous DMPK expression (qRT-PCR); off-target effects (RNAseq); RNA foci (FISH); MBNL1 colocalization (FISH/IF); CLCN1 staining (IF); and central nuclei (H&E). Frozen muscle and brain samples from each mouse model are analyzed by UPLC-MS/MS to determine preliminary bioavailability, which is correlated with molecular activity (muscle only for HSA-based and brain only for DMPK480/480) to assess therapeutic potential.

DM1 and DM2 cell lines = test: Splicing rescue and toxicity in DM1 and DM2 patient-derived cell lines; type: cell-based, human; conditions: DM fibroblasts and myotubes; nanomolar range where stated
Description: Referring to FIG. 1, Step 2, a process flow includes characterizing the best-in-class MPCs for in cellulo activity and therapeutic potential. Rationale and preliminary data: Because of the multisystemic nature of pathogenesis in myotonic dystrophy, it is desirable to evaluate the therapeutic potential of excellent MPCs in multiple DM cellular models as well as in control models in order to best prioritize compounds for in vivo testing. The cellular activity of MPC lead panel is systematically evaluated starting with HM19A & HM19B in 2 independent DM1 and DM2 patient-derived fibroblast lines and 2 independent DM1 myoblast/myotube differentiation models along with age and gender-matched control cell lines. Potential blood brain barrier penetrance is evaluated using the established MDR1-MDCK monolayer assay. This aim will facilitate the informed selection of the top performing compounds in cellular studies for testing in animal models of DM (See e.g., FIG. 1, step 3).
(§3) DM splicing panel analysis: MPCs are evaluated starting with HM19A &19B in control and DM cells using a 5-point dose-response treatment. Data from the characterization of multiple DM1 & DM2 fibroblast supports this splicing panel and the utility of fibroblasts as a screening tool (See FIGS. 7A-E).

DM1 fibroblasts = test: RT-PCR analysis of INSR exon 11 mis-splicing in DM1 fibroblasts; type: cell-based, human; conditions: FIG. 2B
Protocol: (§4) FIG. 2A presents the chemical structures of furamidine, HM19A and HM19B. […] (ANOVA two-tailed test, *p<0.05 and **p<0.01).
as §3

HSA^LR/LR mice = test: RT-PCR splicing rescue in HSALR/LR DM1 mouse model (muscle); type: in vivo; conditions: for rescue of mis-splicing (DM1 splicing) in HSALR mice: HSALR mouse model; for RT-PCR splicing rescue of Atp2a1 exon 22: TA muscle of HSA^LR/LR mice (N=2), 7 days, FIG. 8A
Description: as §1
as §2, with “The” for “Short-term Studies: To select excellent candidates for long-term studies, cohorts (N=6) of one-month old age- and gender-matched animals from both muscle (homozygous HSALR/LR or heterozygous HSAXLR) and brain (Dmpk480/480) mouse models are treated. Both transgenic (N=6) and matching wild-type (N=6) mice are treated every two days at 3 different concentrations of lead MPCs (2, 5 and 10 mg/kg) or PBS via IP injection for a period of 1 week. The”

DM1 fibroblast = test: MTT cell viability in DM1 fibroblast; type: cell-based, human; conditions: for MTT cell viability: DM1 fibroblast, low micromolar concentrations, FIG. 2C
Protocol: as §4
Effects on cellular health: To monitor the overall health of cells, treated vs. untreated control and DM patient fibroblast and myoblast/myotube lines are tested across a dose range where one observes a reduction in toxic CUG/CCUG RNA levels and rescue of mis-splicing. Cell health is monitored using the lactate dehydrogenase (LDH) and methylthiazol tetrazolium (MTT) assays, to measure membrane integrity (cell death) and metabolic activity (cell viability), along with monitoring rates of cell growth. Mutagenicity is assessed using the Ames test. Alterations in cell death, cell viability and rates of cell growth and mutagenicity is combined with data from control cells to determine the overall effect on cell health due to MPC treatment. As shown in FIGS. 2A-2E, HM19B rescues splicing at more than 50-fold lower concentrations than at concentrations where cell death is starting to be observed.

DM2 fibroblasts = test: RT-PCR analysis of INSR exon 11 mis-splicing in DM2 fibroblasts; type: cell-based, human; conditions: FIG. 2B
Protocol: as §4, §3

CUG repeat RNA = test: Circular dichroism (CD) spectroscopy with CUG repeat RNA; type: binding
DM1 myoblasts = test: RT-PCR analysis of mis-splicing events in DM1 myoblasts; type: cell-based, human; conditions: nanomolar concentrations, FIG. 2D
Description: as §4

patient-derived myotubes = test: DM1 splicing rescue in patient-derived myotubes; type: cell-based, human

| Structure (SMILES) | RT-PCR splicing rescue of Lnf2 exon22 (Dmpk^480/480 mice) | splicing rescue in patient-derived cell lines (DM1 and DM2 cell lines) | rescue of INSR exon 11 mis-splicing (DM1 fibroblasts) | rescue of mis-splicing (DM1 splicing) in HSALR mice (HSA^LR/LR mice) | RT-PCR splicing rescue of Atp2a1 exon 22 (HSA^LR/LR mice) | MTT cell viability (DM1 fibroblast) | rescue of INSR exon 11 mis-splicing (DM2 fibroblasts) | interaction with CUG repeat RNA by CD spectroscopy (CUG repeat RNA) | rescue in the CNS compared to DB829 (Dmpk^480/480 mice; Dmpk^480/480 mice, FIG. 8C) | rescue in the Dmpk480/480 mice (Dmpk^480/480 mice; early preliminary data) | concentration margin between splicing rescue and concentrations where cell death is starting to be observed (DM1 fibroblast; FIGS. 2A-2E) | rescue of MBNL1 exon 5 mis-splicing (DM1 myoblasts) | rescue of MBNL2 exon 5 mis-splicing (DM1 myoblasts) | rescue of DM1 splicing (patient-derived myotubes) |
| --- | --- | --- | --- | --- | --- | --- | --- | --- | --- | --- | --- | --- | --- | --- |
| N=C(N)c1ccc(-c2ccc(-c3ccc(C(=N)N)cn3)o2)nc1 [DB829, reference compound] | splicing rescue | – | – | – | – | – | – | – | – | – | – | – | – | – |
| c1ccc2[nH]c(-c3ccc(-c4ccc(-c5ccc(-c6nc7ccccc7[nH]6)cc5)o4)cc3)nc2c1 [HM19A] | – | significantly rescuing mis-splicing | strong rescue | significantly rescuing mis-splicing | splicing rescue | no effect on viability | strong rescue | – | – | – | – | – | – | – |
| CN1CCN(c2ccc3nc(-c4ccc(-c5ccc6c(c5)oc5cc(-c7ccc(-c8nc9ccc(N%10CCN(C)CC%10)cc9[nH]8)cc7)ccc56)cc4)[nH]c3c2)CC1 [HM19B] | splicing rescue | splicing rescue at the nanomolar concentration; also recorded: significantly rescuing mis-splicing | strong rescue | significantly rescuing mis-splicing | splicing rescue | no effect on viability | strong rescue | surface interaction between ligand and substrate | reduced rescue | capable of rescue | more than 50 fold | promising rescue | promising rescue | – |
| COc1cc2c(c(OC)c1OC)-c1ccc(OC)c(=O)cc1[C@@H](NC(C)=O)CC2 [colchicine] | – | – | – | – | – | – | – | – | – | – | – | – | – | rescue DM1 splicing |
